Values quoted from earlier work as cited in paper PMC12036195 (Journal of Hematology & Oncology, 2025).

Tested on: r/r PTCL

N#CC[C@H](C1CCCC1)n1cc(-c2ncnc3[nH]ccc23)cn1 [ruxolitinib]
Response rate: 25%
